Results taken from patent US20240415918A1, “Polypeptide and its use as a CCK receptor agonist/antagonist” (Centre for Regenerative Medicine & Health, Hong Kong …, priority 2021, published 2024).
*1 amine or outer side, *2 acyl side, *3 side chain or, on linkers, in order; H or OH if unused. Where a SMILES comes first, the peptide text is derived from it. Where no end group is shown, it is not given here. [ ]: non-standard residue; d: D form. The star is where a group is joined. X1 = O=C([C@@]1(O)C[C@@H](O)[C@H](N[*:1])C([C@@H](O)[C@@H](O)CO)O1)[*:2]; NMeW = CN[C@@H](Cc1c[nH]c2ccccc12)C(=O)O; Phe(3-Br) = N[C@@H](Cc1cccc(Br)c1)C(=O)O; dNMeW = CN[C@H](Cc1c[nH]c2ccccc12)C(=O)O; Fmoc = O=C(OCC1c2ccccc2-c2ccccc21)*; Aad = N[C@@H](CCCC(=O)O)C(=O)O; Nle = CCCC[C@H](N)C(=O)O

Columns and labels:
[1] = target: T1, CCK-B receptors (CHO-CCK) (Homo sapiens, UniProt P32239); assay: Calcium flux (Fluo-8) agonist test on CHO-CCK model cells; format: cell-based; details: for EC50 / % Act-Ave @ 1 nM / % Act-Ave @ 50 nM: CHO-CCK cells; for Agonistic Activity (%) at 10 μM: compound at 10 μM, percentage of signal of 20 nM CCK8 alone; for % Act-Ave @ 1 nM: compound at 1 nM; for % Act-Ave @ 50 nM: compound at 50 nM
T1 construct: expressed in transfected cells; host or cells: CHO (CHO-CCK model cells)
T1 sequence (P32239 1-447): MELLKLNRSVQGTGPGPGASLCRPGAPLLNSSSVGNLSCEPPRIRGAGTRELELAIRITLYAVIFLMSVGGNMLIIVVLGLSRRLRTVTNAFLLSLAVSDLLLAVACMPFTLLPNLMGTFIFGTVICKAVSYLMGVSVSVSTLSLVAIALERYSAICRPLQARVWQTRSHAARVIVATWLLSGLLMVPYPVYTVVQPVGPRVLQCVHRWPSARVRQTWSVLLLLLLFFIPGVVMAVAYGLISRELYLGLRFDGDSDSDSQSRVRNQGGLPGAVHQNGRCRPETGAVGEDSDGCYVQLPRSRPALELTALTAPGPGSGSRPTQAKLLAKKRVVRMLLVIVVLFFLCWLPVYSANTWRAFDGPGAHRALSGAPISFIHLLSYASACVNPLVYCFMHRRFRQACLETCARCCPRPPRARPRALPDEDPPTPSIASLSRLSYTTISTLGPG
Outline: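 Agonist-mode Fluo-8 calcium flux read on CHO-CCK cells after dye loading 30 min at 37 °C plus 30 min at room temperature.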

[2] = target: T1, CCK-B receptors (CHO-CCK); assay: Calcium flux (Fluo-8) antagonist test on CHO-CCK model cells in presence of CCK8; format: cell-based
Experimental: The compound was formulated to a 10 mM mother liquor with DMSO, and then diluted into a series of 9 concentrations with a 3-fold gradient to form a 1000× stock solution. […] Prepare 1×Fluo-8 analysis buffer: mix 9 mL of HHBS, 1 mL of 10× Pluronic F127 Plus and 20 μL of Fluo-8 thoroughly for later use. • 3. Add Fluo-8 dye working solution to the cell plate, 100 μL/well. First incubate in a 37° C. incubator for 30 min, and then take it out and incubate at room temperature in the dark for 30 min. • 4. In the process of incubating cells, the compounds to be detected were prepared with HHBS. • 5. […] The agonism/antagonism EC50 of the compound can be obtained by plotting the fitting curve with the agonism/antagonism percentage as Y-axis and the concentration of the compound as X-axis.

[3] = Fluo-8 calcium flux, 100% control = 20 nM CCK8
[4] = compound alone, 100% = 20 nM CCK8

Compound CSCC[C@H](NC(=O)[C@@H](Cc1cc2ccccc2[nH]1)NC(=O)[C@@]1(O)C[C@@H](O)[C@H](NC(C)=O)C([C@@H](O)[C@@H](O)CO)O1)C(=O)N[C@@H](CC(=O)O)C(=O)N[C@@H](Cc1cccc(Br)c1)C(N)=O (stereo partly drawn) [HT-256, Sia-D-Trp-Met-Asp-Phe(3-Br)-NH2] has an EC50 [1, 3] of 0.000672 µM and an EC50 ([2]; in presence of 10 nM CCK8) of 0.0419 µM.
CCCC[C@H](NC(C)=O)C(=O)NCC(=O)N[C@@H](Cc1c[nH]c2ccccc12)C(=O)N[C@@H](CCSC)C(N)=O [HT-212, Ac-Nle-Gly-Trp-Met-NH2] (Ac-[Nle]GWM-NH2) gave an EC50 ([1]; Fluo-8 calcium flux, bound in μM) of over 10 µM and an EC50 ([2]; in presence of 10 nM CCK8, bound in μM) of over 10 µM.
CSCC[C@H](NC(=O)[C@@H](Cc1ccc(O)cc1)NC(C)=O)C(=O)N[C@@H](CC(=O)O)C(=O)N[C@@H](Cc1cccc(Br)c1)C(N)=O [HT-182, Ac-D-Tyr-Met-Asp-Phe(3-Br)-NH2] (Ac-[dY]MD[Phe(3-Br)]-NH2) showed an EC50 [1, 4] of 0.421 µM and an EC50 ([2]; compound together with 10 nM CCK8) of 3.3 µM.
CSCC[C@H](NC(=O)[C@H](Cc1c[nH]c2ccccc12)NC(C)=O)C(=O)N[C@@H](CC(=O)O)C(=O)N[C@@H](CCC(=O)O)C(N)=O [HT-197, Ac-Trp-Met-Asp-Gln-NH2] gave an EC50 ([2]; in presence of 10 nM CCK8) of 1.67 µM.
CS(=O)(=O)CC[C@H](NC(=O)[C@H](N)Cc1c[nH]c2ccccc12)C(=O)N[C@@H](CC(=O)O)C(=O)N[C@@H](Cc1cccc(I)c1)C(N)=O [HT-62, D-Trp-Met(O2)-Asp-Phe(3-I)-NH2] was tested, and the EC50 [1, 4] was 4.37 µM and the “Agonistic Activity (%) at 10 μM” value [1] was 4.26%.
For Cc1ccc(C[C@H](NC(=O)[C@H](CC(=O)OCCNc2cccc3c(O)cccc23)NC(=O)[C@H](CCS(C)(=O)=O)NC(=O)[C@H](N)Cc2c[nH]c3ccccc23)C(N)=O)cc1 [HT-166, D-Trp-Met(O2)-Asp(EDANS)-Phe(4-Me)-NH2], the “Agonistic Activity (%) at 10 μM” value [1] was 3.59%.
With HHHHHHSSGGWKDF-NH2 [HT-286] the “% Act-Ave @ 1 nM” value [1] was −0.40% and the “% Act-Ave @ 50 nM” value [1] was −0.52%.
For COC(=O)C[C@H](NC(=O)[C@H](CC[S+](C)[O-])NC(=O)[C@H](N)Cc1c[nH]c2ccccc12)C(=O)N[C@@H](Cc1ccc(F)cc1)C(N)=O (stereo partly drawn) [HT-121, D-Trp-Met(O)-Asp(Ome)-Phe(4-F)-NH2], the “Agonistic Activity (%) at 10 μM” value [1] was 10.99%.
In the case of CS(=O)(=O)CC[C@H](NC(=O)[C@H](N)Cc1c[nH]c2ccccc12)C(=O)N[C@@H](CC(=O)O)C(=O)N[C@@H](Cc1ccc([N+](=O)[O-])cc1)C(N)=O [HT-67, D-Trp-Met(O2)-Asp-Phe(4-NO2)-NH2], the “Agonistic Activity (%) at 10 μM” value [1] is reported as −1.49%.
For CCCC[C@H](NC(=O)[C@@H](Cc1c[nH]c2ccccc12)N(C)C(C)=O)C(=O)N[C@@H](CCCC(=O)O)C(=O)N[C@@H](Cc1cccc(Br)c1)C(N)=O [HT-270, Ac-D-Trp-Nle-Aa-Phe(3-Br)-NH2] (Ac-[dNMeW][Nle][Aad][Phe(3-Br)]-NH2), the “% Act-Ave @ 1 nM” value [1] was −0.03% and the “% Act-Ave @ 50 nM” value [1] was 80.85%.
For CCCC[C@H](NC(=O)[C@H](Cc1c[nH]c2ccccc12)N(C)C(=O)[C@@]1(O)C[C@@H](O)[C@H](NC(C)=O)C([C@@H](O)[C@@H](O)CO)O1)C(=O)N[C@@H](CC(=O)O)C(=O)N[C@@H](Cc1cccc(Br)c1)C(N)=O (stereo partly drawn) [HT-278, Sia-(N-Me-Trp)-Nle-Asp-Phe(3-Br)-NH2] (Ac-[X1][NMeW][Nle]D[Phe(3-Br)]-NH2), the “% Act-Ave @ 1 nM” value [1] was 40.85% and the “% Act-Ave @ 50 nM” value [1] was 93.12%.
In the case of CS(=O)(=O)CC[C@H](NC(=O)[C@H](N)Cc1c[nH]c2ccccc12)C(=O)N[C@@H](CC(=O)O)C(=O)N[C@@H](Cc1ccc(Br)cc1)C(N)=O [HT-68, D-Trp-Met(O2)-Asp-Phe(4-Br)-NH2], the “Agonistic Activity (%) at 10 μM” value [1] is reported as 15.61%.
With CS(=O)(=O)CC[C@H](NC(=O)[C@H](N)Cc1c[nH]c2ccccc12)C(=O)N[C@@H](CC(=O)O)C(=O)N[C@@H](Cc1ccc(F)cc1)C(N)=O [HT-70, D-Trp-Met(O2)-Asp-Phe(4-F)-NH2] the EC50 [1, 4] was 11.4 µM and the “Agonistic Activity (%) at 10 μM” value [1] was 35.31%.
With CCCC[C@H](NC(=O)[C@H](Cc1c[nH]c2ccccc12)N(C)C(=O)OCC1c2ccccc2-c2ccccc21)C(=O)N[C@@H](CC(=O)O)C(=O)N[C@@H](Cc1cccc(Br)c1)C(N)=O [HT-268, Fmoc-(N-Me-Trp)-Nle-Asp-Phe(3-Br)-NH2] (Fmoc-[NMeW][Nle]D[Phe(3-Br)]-NH2) the EC50 [1, 3] was 0.0013 µM.
For C[S+]([O-])CC[C@H](NC(=O)[C@H](N)Cc1c[nH]c2ccccc12)C(=O)N[C@@H](CC(=O)O)C(=O)N[C@@H](Cc1ccccc1)C(N)=O (stereo partly drawn) [HT-16, D-Trp-Met(O)-Asp-Phe-NH2], the “Agonistic Activity (%) at 10 μM” value [1] was 19.11%.
COC(=O)C[C@H](NC(=O)[C@H](CC[S+](C)[O-])NC(=O)[C@H](N)Cc1c[nH]c2ccccc12)C(=O)N[C@@H](Cc1cc(F)c(F)c(F)c1)C(N)=O (stereo partly drawn) [HT-125, D-Trp-Met(O)-Asp(Ome)-Phe(3,4,5-TriF)-NH2] was tested, and the “Agonistic Activity (%) at 10 μM” value [1] was −4.16%.
In the case of C[S+]([O-])CC[C@H](NC(=O)[C@H](N)Cc1c[nH]c2ccccc12)C(=O)N[C@@H](CC(=O)O)C(=O)N[C@@H](Cc1ccc(C#N)cc1)C(N)=O (stereo partly drawn) [HT-49, D-Trp-Met(O)-Asp-Phe(4-CN)-NH2], the “Agonistic Activity (%) at 10 μM” value [1] is reported as 1.03%.
For C[S+]([O-])CC[C@H](NC(=O)[C@H](N)Cc1c[nH]c2ccccc12)C(=O)N[C@@H](CC(=O)O)C(=O)N[C@@H](Cc1ccccc1[N+](=O)[O-])C(N)=O (stereo partly drawn) [HT-41, D-Trp-Met(O)-Asp-Phe(2-NO2)-NH2], the “Agonistic Activity (%) at 10 μM” value [1] was −11.17%.
In the case of COC(=O)C[C@H](NC(=O)[C@H](CC[S+](C)[O-])NC(=O)[C@H](N)Cc1c[nH]c2ccccc12)C(=O)N[C@@H](Cc1ccc(N=[N+]=[N-])cc1)C(N)=O (stereo partly drawn) [HT-116, D-Trp-Met(O)-Asp(Ome)-Phe(4-N3)-NH2], the “Agonistic Activity (%) at 10 μM” value [1] is reported as 10.90%.
With CCCC[C@H](NC(=O)[C@H](Cc1c[nH]c2ccccc12)N(C)C(C)=O)C(=O)N[C@@H](CC(=O)O)C(=O)N[C@@H](Cc1cccc(Br)c1)C(N)=O [HT-273, Ac-(N-Me-Trp)-Nle-Asp-Phe(3-Br)-NH2] (Ac-[NMeW][Nle]D[Phe(3-Br)]-NH2) the “% Act-Ave @ 1 nM” value [1] was 52.14% and the “% Act-Ave @ 50 nM” value [1] was 96.54%.
CCCC[C@H](NC(=O)[C@H](Cc1c[nH]c2ccccc12)N(C)C(=O)[C@@]1(O)C[C@@H](O)[C@H](NC(C)=O)C([C@@H](O)[C@@H](O)CO)O1)C(=O)N[C@@H](CC(=O)O)C(=O)N[C@@H](Cc1cccc(Br)c1)C(N)=O (stereo partly drawn) [HT-274, Sia-(N-Me-Trp)-Nle Asp-Phe(3-Br)-NH2] (Ac-[X1][NMeW][Nle]D[Phe(3-Br)]-NH2) was tested, and the “% Act-Ave @ 1 nM” value [1] was 0.10% and the “% Act-Ave @ 50 nM” value [1] was 72.88%.
COC(=O)C[C@H](NC(=O)[C@H](CCSC)NC(=O)[C@H](N)Cc1c[nH]c2ccccc12)C(=O)N[C@@H](Cc1ccccc1)C(N)=O [HT-18, D-Trp-Met-Asp(OMe)-Phe-NH2] was tested, and the “Agonistic Activity (%) at 10 μM” value [1] was 7.59%.
COC(=O)C[C@H](NC(=O)[C@H](CC[S+](C)[O-])NC(=O)[C@H](N)Cc1c[nH]c2ccccc12)C(=O)N[C@@H](Cc1ccccc1F)C(N)=O (stereo partly drawn) [HT-110, D-Trp-Met(O)-Asp(Ome)-Phe(2-F)-NH2] was tested, and the “Agonistic Activity (%) at 10 μM” value [1] was 1.36%.
For COC(=O)C[C@H](NC(=O)[C@H](CCS(C)(=O)=O)NC(=O)[C@H](N)Cc1c[nH]c2ccccc12)C(=O)N[C@@H](Cc1ccc(N=[N+]=[N-])cc1)C(N)=O [HT-133, D-Trp-Met(O2)-Asp(Ome)-Phe(4-N3)-NH2], the “Agonistic Activity (%) at 10 μM” value [1] was 8.66%.
With CCCC[C@H](NC(=O)[C@H](Cc1c[nH]c2ccccc12)N(C)C(C)=O)C(=O)N[C@@H](CCCC(=O)O)C(=O)N[C@@H](Cc1cccc(Br)c1)C(N)=O [HT-272, Ac-(N-Me-Trp)-Nle-Aa-Phe(3-Br)-NH2] (Ac-[NMeW][Nle][Aad][Phe(3-Br)]-NH2) the “% Act-Ave @ 1 nM” value [1] was −0.33% and the “% Act-Ave @ 50 nM” value [1] was 86.09%.
